Test results taken from patent publication US6852673B2, “Herbicidal pyridine compounds” (BASF Aktiengesellschaft, priority 1998, dated 2005).

Columns and labels:
Format in all cases: in vivo
[1] = system: Setaria viridis (SETVI); experiment: Pre-emergence herbicidal evaluation, green foxtail
Excerpt: (§1) The pre-emergence herbicidal activity of the compounds of the present invention is exemplified by the following test in which the seeds of a variety of monocotyledonous and dicotyledonous plants are seperately mixed with potting soil and planted on top of approximately one inch of soil in separate pots. After planting, the pots are sprayed with the selected aqueous acetone solution containing test compound in sufficient quantity to provide the equivalent of about 0.0125 to 0.4 kg per hectare of test compound per pot. The treated pots are then placed on greenhouse benches, watered and cared for in accordance with conventional greenhouse procedures. From 2 to 4 weeks after treatment, the tests are terminated and each pot is examined and rated according to the rating system set forth below.

[2] = system: Triticum aestivum (TRZAW); experiment: Pre-emergence herbicidal evaluation, winter wheat
Excerpt: as §1

[3] = system: Matricaria inodora (MATIN); experiment: Post-emergence herbicidal evaluation, mayweed; conditions: rated 2 to 4 weeks after treatment
Description: (§2) [table] [table] […] These acetone solutions are diluted with water and the resulting formulations applied at dosage levels equivalent of about 0.03 to 0.4 kg per hectare of test compound per pot. After spraying the plants are placed on greenhouse benches and are cared for in the usual manner, commensurate with conventional greenhouse practices. From 2 to 4 weeks after treatment, the seedling plants are examined and rated according to the rating system provided above. A rating 0 indicates growth as untreated control, a rating 9 indicates death.

[4] = system: Alopecurus myosuroides (ALOMY); experiment: Pre-emergence herbicidal evaluation, black grass
Excerpt: as §1

[5] = system: weeds; experiment: Post-emergence herbicidal evaluation, overall weed control; conditions: in barley at crop selective doses
Description: as §2

[6] = system: Stellaria media (STEME); experiment: Post-emergence herbicidal evaluation, chickweed; conditions: rated 2 to 4 weeks after treatment
Description: as §2

[7] = system: Alopecurus myosuroides (ALOMY); experiment: Post-emergence herbicidal evaluation, black grass; conditions: rated 2 to 4 weeks after treatment
Description: as §2

[8] = system: Ipomoea hederacea (IPOHE); experiment: Post-emergence herbicidal evaluation, morning glory; conditions: rated 2 to 4 weeks after treatment
Description: as §2

[9] = system: Zea mays (ZEAMX); experiment: Post-emergence herbicidal evaluation, maize; conditions: rated 2 to 4 weeks after treatment
Description: as §2

[10] = system: Matricaria inodora (MATIN); experiment: Pre-emergence herbicidal evaluation, mayweed
Excerpt: as §1

[11] = system: Abutilon theophrasti (ABUTH); experiment: Post-emergence herbicidal evaluation, velvetleaf; conditions: rated 2 to 4 weeks after treatment
Description: as §2

[12] = system: Triticum aestivum (TRZAW); experiment: Post-emergence herbicidal evaluation, winter wheat; conditions: rated 2 to 4 weeks after treatment
Description: as §2

[13] = system: Digitaria sanguinalis (DIGSA); experiment: Pre-emergence herbicidal evaluation, large crabgrass
Excerpt: as §1

[14] = system: Lamium purpureum (LAMPU); experiment: Pre-emergence herbicidal evaluation, purple deadnettle
Excerpt: as §1

[15] = system: Hordeum vulgare (HORVW); experiment: Pre-emergence herbicidal evaluation, winter barley
Excerpt: as §1

[16] = system: Solanum nigrum (SOLNI); experiment: Pre-emergence herbicidal evaluation, black nightshade
Excerpt: as §1

[17] = system: Solanum nigrum (SOLNI); experiment: Post-emergence herbicidal evaluation, black nightshade; conditions: rated 2 to 4 weeks after treatment
Description: as §2

[18] = system: Echinochloa grus galli (ECHCG); experiment: Pre-emergence herbicidal evaluation, barnyard grass
Excerpt: as §1

Cc1cc(OCC(F)(F)C(F)(F)F)nc(Oc2cc(C(F)(F)F)nn2C)c1 [Example 7]
5 (5 - Definite injury): SETVI rating ([1]; dose 0.1 kg/ha) | STEME rating ([6]; dose 0.1 kg/ha) | STEME rating ([6]; dose 0.4 kg/ha) | ALOMY rating ([7]; dose 0.4 kg/ha)
effective: broad-leaved weed control [5]
4 (4 - Injury): ALOMY rating ([4]; dose 0.1 kg/ha) | ALOMY rating ([7]; dose 0.1 kg/ha) | SOLNI rating ([16]; dose 0.1 kg/ha)
6 (6 - Herbicidal effect): DIGSA rating ([13]; dose 0.1 kg/ha) | LAMPU rating ([14]; dose 0.025 kg/ha)
7 (7 - Good herbicidal effect): MATIN rating ([3]; dose 0.1 kg/ha)
8 (8 - Approaching complete kill): SETVI rating ([1]; dose 0.4 kg/ha) | MATIN rating ([3]; dose 0.4 kg/ha) | MATIN rating ([10]; dose 0.1 kg/ha) | DIGSA rating ([13]; dose 0.4 kg/ha) | LAMPU rating ([14]; dose 0.1 kg/ha)
0 (0 - No effect): TRZAW rating ([2]; dose 0.013 kg/ha) | TRZAW rating ([2]; dose 0.025 kg/ha) | ALOMY rating ([4]; dose 0.013 kg/ha) | MATIN rating ([10]; dose 0.013 kg/ha) | DIGSA rating ([13]; dose 0.013 kg/ha) | HORVW rating ([15]; dose 0.013 kg/ha) | HORVW rating ([15]; dose 0.025 kg/ha) | SOLNI rating ([16]; dose 0.013 kg/ha) | SOLNI rating ([17]; dose 0.03 kg/ha) | SOLNI rating ([17]; dose 0.1 kg/ha) | SOLNI rating ([17]; dose 0.4 kg/ha) | ECHCG rating ([18]; dose 0.013 kg/ha)
3 (3 - Moderate effect): IPOHE rating ([8]; dose 0.03 kg/ha) | ZEAMX rating ([9]; dose 0.4 kg/ha) | MATIN rating ([10]; dose 0.025 kg/ha) | TRZAW rating ([12]; dose 0.4 kg/ha) | HORVW rating ([15]; dose 0.4 kg/ha)
1 (1 - Trace effect): TRZAW rating ([2]; dose 0.1 kg/ha) | ALOMY rating ([4]; dose 0.025 kg/ha) | DIGSA rating ([13]; dose 0.025 kg/ha) | SOLNI rating ([16]; dose 0.025 kg/ha) | ECHCG rating ([18]; dose 0.025 kg/ha)
9 (9 - Complete kill): ALOMY rating ([4]; dose 0.4 kg/ha) | IPOHE rating ([8]; dose 0.1 kg/ha) | IPOHE rating ([8]; dose 0.4 kg/ha) | MATIN rating ([10]; dose 0.4 kg/ha) | LAMPU rating ([14]; dose 0.4 kg/ha) | SOLNI rating ([16]; dose 0.4 kg/ha)
2 (2 - Slight effect): SETVI rating ([1]; dose 0.013 kg/ha) | SETVI rating ([1]; dose 0.025 kg/ha) | TRZAW rating ([2]; dose 0.4 kg/ha) | MATIN rating ([3]; dose 0.03 kg/ha) | STEME rating ([6]; dose 0.03 kg/ha) | ALOMY rating ([7]; dose 0.03 kg/ha) | ZEAMX rating ([9]; dose 0.03 kg/ha) | ZEAMX rating ([9]; dose 0.1 kg/ha) | ABUTH rating ([11]; dose 0.03 kg/ha) | ABUTH rating ([11]; dose 0.4 kg/ha) | TRZAW rating ([12]; dose 0.03 kg/ha) | TRZAW rating ([12]; dose 0.1 kg/ha) | HORVW rating ([15]; dose 0.1 kg/ha)
